Data as given in patent US20090233930A9, “Novel 2-Amino-Imidazole-4-One Compounds and Their Use in the Manufacture of a Medicament to Be Used in the Treatment of Cognitive Impairment, Alzheimer's Disease, Neurodegeneration and Dementia” (ASTRAZENECA AB, priority 2005, published 2009).
Counter-ions that a name gives are not always drawn.

Target: T1, human β-Secretase (Homo sapiens, UniProt P56817)
T1 construct: The soluble part of the human β-Secretase (AA 1-AA 460) was cloned; made in house
Assay: TR-FRET assay
Type: biochemical
Conditions: sBACE truncated form, substrate (Europium)CEVNLDAEFK(Qsy7) 100 nM, pH 4.5
Protocol: The enzyme used in the IGEN Cleavage-, Fluorescent-, TR-FRET- and the BiaCore assay is described as follows:
The soluble part of the human β-Secretase (AA 1-AA 460) was cloned into the ASP2-Fc10-1-IRES-GFP-neoK mammalian expression vector. The gene was fused to the Fc domain of IgG1 (affinity tag) and stably cloned into HEK 293 cells. Purified sBACE-Fc is stored in Tris buffer, pH 9.2 and has a purity of 95%.
Dilute the enzyme (truncated form) to 6 μg/mL (stock 1.3 mg/mL) and the substrate (Europium)CEVNLDAEFK(Qsy7) to 200 nM (stock 60 μM) in reaction buffer (NaAcetate, chaps, triton x-100, EDTA pH4.5). The Biomek FX is used for all liquid handling and the enzyme and substrate solutions are kept on ice until they are placed in Biomek FX. Enzyme (9 μl) is added to the plate then 1 μl of compound in dimethylsulphoxide is added, mixed and pre-incubated for 10 minutes. Substrate (10 μl) is then added, mixed and the reaction proceeds in the dark for 15 minutes at room temperature. The reaction is stopped with the addition of Stop solution (7 μl, NaAcetate pH 9). The fluorescence of the product is measured on a Victor II plate reader with an excitation wavelength of 340 nm and an emission wavelength of 615 nm. The assay is done in a Costar 384 well round bottom, low volume, non-binding surface (Corning #3676). […]

T1 sequence (P56817 22-460): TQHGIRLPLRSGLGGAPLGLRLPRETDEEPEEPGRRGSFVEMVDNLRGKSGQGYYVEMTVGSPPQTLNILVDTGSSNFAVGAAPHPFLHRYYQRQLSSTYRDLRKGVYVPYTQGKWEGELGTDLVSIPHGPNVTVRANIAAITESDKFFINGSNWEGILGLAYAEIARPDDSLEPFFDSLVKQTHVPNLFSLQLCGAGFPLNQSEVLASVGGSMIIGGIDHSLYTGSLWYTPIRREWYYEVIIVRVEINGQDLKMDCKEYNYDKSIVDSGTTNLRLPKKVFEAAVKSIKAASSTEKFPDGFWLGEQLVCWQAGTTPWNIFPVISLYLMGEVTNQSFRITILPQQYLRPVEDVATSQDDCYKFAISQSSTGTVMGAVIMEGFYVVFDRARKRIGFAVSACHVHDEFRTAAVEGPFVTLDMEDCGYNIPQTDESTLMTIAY

Row | IC50 | Compound
1 | 743 nM | COc1ccc(OS(=O)(=O)C(F)(F)F)c(-c2cccc(C3(c4ccccc4)N=C(N)N(C)C3=O)c2)c1 (centres unmarked) [Example 26, 3′-(2-Amino-1-methyl-5-oxo-4-phenyl-4,5-dihydro-1H-imidazol-4-yl)-5-methoxybiphenyl-2-yl trifluoromethanesulfonate hydrochloride]
2 | 258 nM | COc1cccc(-c2cccc(C3(c4cccc(OS(=O)(=O)C(F)(F)F)c4)N=C(N)N(C)C3=O)c2)c1 (centres unmarked) [Example 45, 3-[2-Amino-4-(3′-methoxybiphenyl-3-yl)-1-methyl-5-oxo-4,5-dihydro-1H-imidazol-4-yl]phenyl trifluoromethanesulfonate hydrochloride]
